The values that follow come from patent publication US10730884B2, “Substituted indole compound derivatives as dengue viral replication inhibitors” (Janssen Pharmaceuticals, Inc., priority 2016, dated 2020).

The structures appear in SMILES notation.

In one data set the test system is Vero cells.
Experiment: not given
The settings on record: African green monkey.
With `COc1cc(NC(C(=O)c2c[nH]c3c(C)cc(Cl)cc23)c2ccc(F)cc2OC)cc(OCCO)c1` (single isomer, unassigned) [Compound 1B], the CC50 (as a rule, the concentration at which the toxic effect on the cells reaches its halfway point) amounted to 11000 nM.

`COc1cc(NC(C(=O)c2c[nH]c3cc(OC)c(Cl)cc23)c2ccc(F)cc2OC)cc(OCCO)c1` (single isomer, unassigned) [Compound 2B] returned a 50% cytotoxic concentration (CC50) of 11000 nM.

`COc1cc(NC(C(=O)c2c[nH]c3cc(F)c(C)cc23)c2ccc(F)cc2OC)cc(OCCO)c1` (single isomer, unassigned) [Compound 3A]: the CC50 came to 3800 nM.

On to `COc1cc(NC(C(=O)c2c[nH]c3cc(F)c(C)cc23)c2ccc(F)cc2OC)cc(OCCO)c1` (single isomer, unassigned) [Compound 3B], for which the CC50 worked out at 8000 nM.

Consider `COc1cc(NC(C(=O)c2c[nH]c3ccc(C)cc23)c2ccc(F)cc2OC)cc(OCCO)c1` (single isomer, unassigned) [Compound 5B], for which the cytotoxic concentration (CC50) is 11000 nM.

Take `COc1cc(NC(C(=O)c2c[nH]c3cc4c(cc23)CCO4)c2ccc(F)cc2OC)cc(OCCO)c1` (single isomer, unassigned) [Compound 7B]: it took 12000 nM to reach half-maximal cytotoxicity (CC50).

As for `COc1cc(NC(C(=O)c2c[nH]c3c4c(ccc23)OCC4)c2ccc(F)cc2OC)cc(OCCO)c1` (single isomer, unassigned) [Compound 8B], the midpoint of cytotoxicity, the CC50, lay at 12000 nM.

The test system of another data set is DENV-4 strain H241. Briefly: Tetravalent RT-qPCR assay, serotype 4. It is filed as cell-based, Dengue virus. The settings on record: Dengue virus, DENV4, Vero, 72 h, RT-qPCR serotype 4 H241, Protocol A, Vero cells, day 3. The method, then:
(§1) The antiviral activity of the compounds of the invention was tested against DENV-1 strain TC974#666 (NCPV), DENV-2 strain 16681, DENV-3 strain H87 (NCPV) and DENV-4 strain H241 (NCPV) in a RT-qPCR assay. Therefore, Vero cells were infected with either DENV-1, or -2, or -3, or -4 in the presence or absence of test compounds. At day 3 post-infection, the cells were lysed and cell lysates were used to prepare cDNA of both a viral target (the 3′UTR of DENV; Table 2) and a cellular reference gene (β-actin, Table 2). Subsequently, a duplex real time PCR was performed on a Lightcycler480 instrument. The generated Cp value is inversely proportional to the amount of RNA expression of these targets. Inhibition of DENV replication by a test compound result in a shift of Cp's for the 3′UTR gene. On the other hand, if a test compound is toxic to the cells, a similar effect on β-actin expression will be observed. The comparative ΔΔCp method is used to calculate EC50, which is based on the relative gene expression of the target gene (3′UTR) normalized with the cellular housekeeping gene (β-actin). In addition, CC50 values are determined based on the Cp values acquired for the housekeeping gene β-actin.
(§2) The culture medium consisted of minimal essential medium supplemented with 2% of heat-inactivated fetal calf serum, 0.04% gentamycin (50 mg/mL) and 2 mM of L-glutamine. Vero cells, obtained from ECACC, were suspended in culture medium and 75 μL/well was added in 96-well plates (10000 cells/well), which already contain the antiviral compounds. […] In addition, each plate contains wells which are assigned as virus controls (containing cells and virus in the absence of compound) and cell controls (containing cells in the absence of virus and compound). Once the cells were added in the plates, the plates were incubated in a fully humidified incubator (37° C., 5% CO2) until the next day. Dengue viruses serotype-1, 2, 3 and 4 were diluted in order to obtain a Cp of ˜22-24 in the assay. Therefore, 25 μL of virus suspension was added to all the wells containing test compound and to the wells assigned as virus control. In parallel, 25 μL of culture medium was added to the cell controls. Next, the plates were incubated for 3 days in a fully humidified incubator (37° C., 5% CO2). After 3 days, the supernatant was removed from the wells and the cells were washed twice with ice-cold PBS (˜100 μL). The cell pellets within the 96-well plates were stored at −80° C. for at least 1 day. Next, RNA was extracted using the Cells-to-CT™ lysis kit, according to the manufacturer's guideline (Life Technologies). The cell lysates can be stored at −80° C. or immediately used in the reverse transcription step.
(§3) In preparation of the reverse transcription step, mix A (table 3A) was prepared and 7.57 μL/well was dispensed in a 96-well plate. After addition of 5 μL of the cell lysates, a five minute denaturation step at 75° C. was performed (table 3B). Afterwards, 7.43 μL of mix B was added (table 3C) and the reverse transcription step was initiated (table 3D) to generate cDNA.
(§4) Finally, a RT-qPCR mix was prepared, mix C (table 4A), and 22.02 μL/well was dispensed in 96-well LightCycler qPCR plates to which 3 μL of cDNA was added and the qPCR was performed according to the conditions in table 4B on a LightCycler 480.
(§5) Using the LightCycler software and an in-house LIMS system, dose response curves for each compound were calculated and the half maximal effective concentration (EC50) and the half maximal cytotoxic concentration (CC50) were determined (Tables 5-8).
In general terms: In qPCR the cycle at which signal appears reflects the starting amount.
As to `COc1cc(NC(C(=O)c2c[nH]c3cc(F)c(C)cc23)c2ccc(F)cc2OC)cc(OCCO)c1` (single isomer, unassigned) [Compound 3A], a half-maximal effect (EC50) was put at 210 nM.

Staying with this data set, now noted: RT-qPCR serotype 4 H241.
`COc1cc(NC(C(=O)c2c[nH]c3cc(F)c(C)cc23)c2ccc(F)cc2OC)cc(OCCO)c1` (single isomer, unassigned) [Compound 3A] registered an SI of 11.

The subject of the next data set is DENV-2 strain 16681. The data set can be described thus: Tetravalent RT-qPCR assay, serotype 2. The settings on record: Dengue virus, DENV2, Vero, 72 h, RT-qPCR serotype 2 16681, Protocol A, Vero cells, day 3. It is filed as cell-based, Dengue virus. Here is the method: as §1, §2, §3, §4, §5
For the molecule `COc1cc(NC(C(=O)c2c[nH]c3cc(F)c(C)cc23)c2ccc(F)cc2OC)cc(OCCO)c1` (single isomer, unassigned) [Compound 3A], the response was half-maximal at 1.6 nM (EC50).

Still in this data set, the particulars now being: RT-qPCR serotype 2 16681.
Take `COc1cc(NC(C(=O)c2c[nH]c3cc(F)c(C)cc23)c2ccc(F)cc2OC)cc(OCCO)c1` (single isomer, unassigned) [Compound 3A]: the SI is on record as 1610.

The test system of a further data set is DENV-3 strain H87. The data set can be described thus: Tetravalent RT-qPCR assay, serotype 3. It is filed as cell-based, Dengue virus. To be noted: Dengue virus, DENV3, Vero, 72 h, RT-qPCR serotype 3 H87, Protocol A, Vero cells, day 3; read-out: EC50. The method, then:
as §1, §2, §3, §4, §5
For `COc1cc(NC(C(=O)c2c[nH]c3cc(F)c(C)cc23)c2ccc(F)cc2OC)cc(OCCO)c1` (single isomer, unassigned) [Compound 3A], the EC50 – broadly, the midpoint of the concentration-response curve – is 22 nM.

Staying with this data set, now noted: RT-qPCR serotype 3 H87.
Turning to `COc1cc(NC(C(=O)c2c[nH]c3cc(F)c(C)cc23)c2ccc(F)cc2OC)cc(OCCO)c1` (single isomer, unassigned) [Compound 3A], the SI was found to be 42.

Another data set relates to DENV-2 16681 strain. Briefly: DENV-2 antiviral assay (eGFP-labeled virus, Vero cells). It is filed as cell-based, Dengue virus. To be noted: DENV-2 16681 eGFP, Vero cells, MOI 0.5, 3 days. Here is the method: The antiviral activity of all the compounds of the invention was tested against the DENV-2 16681 strain which was labeled with enhanced green fluorescent protein (eGPF). The culture medium consists of minimal essential medium supplemented with 2% of heat-inactivated fetal calf serum, 0.04% gentamycin (50 mg/mL) and 2 mM of L-glutamine. Vero cells, obtained from ECACC, were suspended in culture medium and 25 μL was added to 384-well plates (2500 cells/well), which already contain the antiviral compounds. Typically, these plates contain a 5-fold serial dilution of 9 dilution steps of the test compound at 200 times the final concentration in 100% DMSO (200 nL). […] Finally, each plate contains wells which are assigned as virus controls (containing cells and virus in the absence of compound), cell controls (containing cells in the absence of virus and compound) and medium controls (containing medium in the absence of cells, virus and compounds). To the wells assigned as medium control, 25 μL of culture medium was added instead of Vero cells. Once the cells were added to the plates, the plates were incubated for 30 minutes at room temperature to allow the cells to distribute evenly within the wells. Next, the plates were incubated in a fully humidified incubator (37° C., 5% CO2) until the next day. Then, DENV-2 strain 16681, labeled with eGFP, was added at a multiplicity of infection (MOI) of 0.5. Therefore, 15 μL of virus suspension was added to all the wells containing test compound and to the wells assigned as virus control. In parallel, 15 μL of culture medium was added to the medium and cell controls. Next, the plates were incubated for 3 days in a fully humidified incubator (37° C., 5% CO2). At the day of the read out, the eGFP fluorescence was measured using an automated fluorescence microscope at 488 nm (blue laser). Using an in-house LIMS system, inhibition dose response curves for each compound were calculated and the half maximal effective concentration (EC50) was determined. Therefore, the percent inhibition (I) for every test concentration is calculated using the following formula: I=100*([…])/(SVC−SCC); ST, SCC and SVC are the amount of eGFP signal in the test compound, cell control and virus control wells, respectively. The EC50 represents the concentration of a compound at which the virus replication is inhibited with 50%, as measured by a 50% reduction of the eGFP fluorescent intensity compared to the virus control. The EC50 is calculated using linear interpolation (Table 1).
`COc1cc(NC(C(=O)c2c[nH]c3c(C)cc(Cl)cc23)c2ccc(F)cc2OC)cc(OCCO)c1` (single isomer, unassigned) [Compound 1B] returned an EC50 of 72 nM.

On to `COc1cc(NC(C(=O)c2c[nH]c3cc(OC)c(Cl)cc23)c2ccc(F)cc2OC)cc(OCCO)c1` (single isomer, unassigned) [Compound 2B], for which the EC50 was determined as 130 nM.

For `COc1cc(NC(C(=O)c2c[nH]c3cc(F)c(C)cc23)c2ccc(F)cc2OC)cc(OCCO)c1` (single isomer, unassigned) [Compound 3A], the EC50 turned out to be 1.1 nM.

`COc1cc(NC(C(=O)c2c[nH]c3cc(F)c(C)cc23)c2ccc(F)cc2OC)cc(OCCO)c1` (single isomer, unassigned) [Compound 3B] gave a concentration giving a half-maximal response (EC50) of 250 nM.

Regarding `COc1cc(NC(C(=O)c2c[nH]c3ccc(C)cc23)c2ccc(F)cc2OC)cc(OCCO)c1` (single isomer, unassigned) [Compound 5B], the EC50 was found to be 820 nM.

`COc1cc(NC(C(=O)c2c[nH]c3cc4c(cc23)CCO4)c2ccc(F)cc2OC)cc(OCCO)c1` (single isomer, unassigned) [Compound 7B] came in with an EC50 of 630 nM.

`COc1cc(NC(C(=O)c2c[nH]c3c4c(ccc23)OCC4)c2ccc(F)cc2OC)cc(OCCO)c1` (single isomer, unassigned) [Compound 8B]: a half-maximal response (EC50) required 820 nM.

The data set is the same for the next values; noted with them: SI=CC50/EC50, DENV-2 antiviral assay.
The molecule `COc1cc(NC(C(=O)c2c[nH]c3c(C)cc(Cl)cc23)c2ccc(F)cc2OC)cc(OCCO)c1` (single isomer, unassigned) [Compound 1B] returned an SI of 148.

Consider `COc1cc(NC(C(=O)c2c[nH]c3cc(OC)c(Cl)cc23)c2ccc(F)cc2OC)cc(OCCO)c1` (single isomer, unassigned) [Compound 2B], for which the SI came out at 85.

The molecule `COc1cc(NC(C(=O)c2c[nH]c3cc(F)c(C)cc23)c2ccc(F)cc2OC)cc(OCCO)c1` (single isomer, unassigned) [Compound 3A] had an SI of 3230.

`COc1cc(NC(C(=O)c2c[nH]c3cc(F)c(C)cc23)c2ccc(F)cc2OC)cc(OCCO)c1` (single isomer, unassigned) [Compound 3B] came in with an SI of 31.

`COc1cc(NC(C(=O)c2c[nH]c3ccc(C)cc23)c2ccc(F)cc2OC)cc(OCCO)c1` (single isomer, unassigned) [Compound 5B]: the SI amounted to 14.

Molecule `COc1cc(NC(C(=O)c2c[nH]c3cc4c(cc23)CCO4)c2ccc(F)cc2OC)cc(OCCO)c1` (single isomer, unassigned) [Compound 7B] gave an SI of 19.

Molecule `COc1cc(NC(C(=O)c2c[nH]c3c4c(ccc23)OCC4)c2ccc(F)cc2OC)cc(OCCO)c1` (single isomer, unassigned) [Compound 8B] had an SI of 14.

The test system of a further data set is DENV-1 strain TC974#666. Briefly: Tetravalent RT-qPCR assay, serotype 1. To be noted: Dengue virus, DENV1, Vero, 72 h, RT-qPCR serotype 1 TC974#666, Protocol A, Vero cells, day 3; read-out: EC50. It is filed as cell-based, Dengue virus. The method, then:
as §1, §2, §3, §4, §5
Take `COc1cc(NC(C(=O)c2c[nH]c3cc(F)c(C)cc23)c2ccc(F)cc2OC)cc(OCCO)c1` (single isomer, unassigned) [Compound 3A]: the concentration giving a half-maximal response (EC50) was found to be 4 nM.

The same data set, now with this note: RT-qPCR serotype 1 TC974#666.
As to `COc1cc(NC(C(=O)c2c[nH]c3cc(F)c(C)cc23)c2ccc(F)cc2OC)cc(OCCO)c1` (single isomer, unassigned) [Compound 3A], the SI turned out to be 748.
